Counter-ions that a name gives are not always drawn. Like-named read-outs stand apart in the source and are kept apart here.
Columns and labels:
Test in all cases: AK assay 384-well format, Prestwick library screening
E. faecium = assay type: cell-based, Enterococcus faecium; details: 50 μM final drug concentration; for fold induction at 50 µM: Enterococcus faecium, 3 h
[1] = tested on: S. aureus strain USA300-0114; assay type: cell-based, Staphylococcus aureus; details: 50 μM final drug concentration; for fold induction at 50 µM: Staphylococcus aureus, USA300, 3 h
K. pneumoniae = assay type: cell-based, Klebsiella pneumoniae; details: 50 μM final drug concentration; for fold induction at 50 µM: Klebsiella pneumoniae, 3 h
[2] = tested on: A. baumannii strain 98-37-09; assay type: cell-based, Acinetobacter baumannii; details: 50 μM final drug concentration; for fold induction at 50 µM: Acinetobacter baumannii, 983709, 3 h
P. aeruginosa = assay type: cell-based, Pseudomonas aeruginosa; details: 50 μM final drug concentration; for fold induction at 50 µM: Pseudomonas aeruginosa, 3 h
E. cloacae = assay type: cell-based, Enterobacter cloacae; details: 50 μM final drug concentration; for fold induction at 50 µM: Enterobacter cloacae, 3 h
E. coli = assay type: cell-based, Escherichia coli; details: 50 μM final drug concentration; for fold induction at 50 µM: Escherichia coli, 3 h
[3] = planktonic, cutoff for positive 3-fold increase, read-out: AK-based Prestwick Library Screening Results, E. faecium (fold increase in extracellular AK activity)
[4] = planktonic, cutoff for positive 3-fold increase, read-out: AK-based Prestwick Library Screening Results, S. aureus (fold increase in extracellular AK activity)
[5] = planktonic, cutoff for positive 3-fold increase, read-out: AK-based Prestwick Library Screening Results, K. pneumoniae (fold increase in extracellular AK activity)
[6] = planktonic, cutoff for positive 3-fold increase, read-out: AK-based Prestwick Library Screening Results, A. baumannii (fold increase in extracellular AK activity)
[7] = planktonic, cutoff for positive 3-fold increase, read-out: AK-based Prestwick Library Screening Results, P. aeruginosa (fold increase in extracellular AK activity)
[8] = planktonic, cutoff for positive 3-fold increase, read-out: AK-based Prestwick Library Screening Results, E. cloacae (fold increase in extracellular AK activity)
[9] = planktonic, cutoff for positive 3-fold increase, read-out: AK-based Prestwick Library Screening Results, E. coli (fold increase in extracellular AK activity)
[10] = planktonic, cutoff for positive-scoring molecules 3-fold increase
[11] = planktonic E. faecium, cutoff for positive-scoring molecules 3-fold increase, read-out: AK-based Prestwick Library Screening Results, E. faecium (increase in extracellular AK activity)
[12] = planktonic S. aureus, cutoff for positive-scoring molecules 3-fold increase, read-out: AK-based Prestwick Library Screening Results, S. aureus (increase in extracellular AK activity)
[13] = planktonic K. pneumoniae, cutoff for positive-scoring molecules 3-fold increase, read-out: AK-based Prestwick Library Screening Results, K. pneumoniae (increase in extracellular AK activity)
[14] = planktonic A. baumannii, cutoff for positive-scoring molecules 3-fold increase, read-out: AK-based Prestwick Library Screening Results, A. baumannii (increase in extracellular AK activity)
[15] = planktonic P. aeruginosa, cutoff for positive-scoring molecules 3-fold increase, read-out: AK-based Prestwick Library Screening Results, P. aeruginosa (increase in extracellular AK activity)
[16] = planktonic E. cloacae, cutoff for positive-scoring molecules 3-fold increase, read-out: AK-based Prestwick Library Screening Results, E. cloacae (increase in extracellular AK activity)
[17] = planktonic E. coli, […], read-out: AK-based Prestwick Library Screening Results, E. coli (increase in extracellular AK activity)
[18] = planktonic, cutoff for positive-scoring molecules 3-fold increase, read-out: AK-based Prestwick Library Screening Results, E. faecium (fold increase in extracellular AK activity)
[19] = planktonic, cutoff for positive-scoring molecules 3-fold increase, read-out: AK-based Prestwick Library Screening Results, S. aureus (fold increase in extracellular AK activity)
[20] = planktonic, cutoff for positive-scoring molecules 3-fold increase, read-out: AK-based Prestwick Library Screening Results, K. pneumoniae (fold increase in extracellular AK activity)
[21] = planktonic, cutoff for positive-scoring molecules 3-fold increase, read-out: AK-based Prestwick Library Screening Results, A. baumannii (fold increase in extracellular AK activity)
[22] = planktonic, cutoff for positive-scoring molecules 3-fold increase, read-out: AK-based Prestwick Library Screening Results, P. aeruginosa (fold increase in extracellular AK activity)
[23] = planktonic, cutoff for positive-scoring molecules 3-fold increase, read-out: AK-based Prestwick Library Screening Results, E. cloacae (fold increase in extracellular AK activity)

## CCCCC[C@H](O)/C=C/[C@@H]1[C@@H](C/C=C\CCCC(=O)O)[C@@H](O)C[C@H]1O [Dinoprost trometamol]
E. faecium; [3]
  fold induction at 50 µM: 1
[1]; [4]
  fold induction at 50 µM: 1.4
K. pneumoniae; [5]
  fold induction at 50 µM: 1
[2]; [6]
  fold induction at 50 µM: 1.2
P. aeruginosa; [7]
  fold induction at 50 µM: 1
E. cloacae; [8]
  fold induction at 50 µM: 1.1
E. coli; [9]
  fold induction at 50 µM: 1

## O.O=C1C(O)=C(O)C(=O)C(O)=C1O [Tetrahydroxy-1,4-quinone monohydrate]
E. faecium; [10]
  AK-based Prestwick Library Screening Results, E. faecium (fold increase in extracellular AK activity): 0.9
[1]; [10]
  AK-based Prestwick Library Screening Results, S. aureus (fold increase in extracellular AK activity): 0.8
K. pneumoniae; [10]
  AK-based Prestwick Library Screening Results, K. pneumoniae (fold increase in extracellular AK activity): 0.8
[2]; [10]
  AK-based Prestwick Library Screening Results, A. baumannii (fold increase in extracellular AK activity): 1.1
P. aeruginosa; [10]
  AK-based Prestwick Library Screening Results, P. aeruginosa (fold increase in extracellular AK activity): 0.9
E. cloacae; [10]
  AK-based Prestwick Library Screening Results, E. cloacae (fold increase in extracellular AK activity): 1.3
E. coli; [10]
  AK-based Prestwick Library Screening Results, E. coli (fold increase in extracellular AK activity): 0.9

## C[C@H]1C[C@H]2[C@@H]3CCC4=CC(=O)C=C[C@]4(C)[C@@]3(F)[C@@H](O)C[C@]2(C)[C@@]1(O)C(=O)CO [Betamethasone]
E. faecium; [11]
  fold induction at 50 µM: 1.1
[1]; [12]
  fold induction at 50 µM: 1.1
K. pneumoniae; [13]
  fold induction at 50 µM: 0.9
[2]; [14]
  fold induction at 50 µM: 0.9
P. aeruginosa; [15]
  fold induction at 50 µM: 1.1
E. cloacae; [16]
  fold induction at 50 µM: 1.3
E. coli; [17]
  fold induction at 50 µM: 1.1

## CN(C)CC/C=C1/c2ccccc2Sc2ccc(Cl)cc21 [Chlorprothixene hydrochloride]
E. faecium; [11]
  fold induction at 50 µM: 1
[1]; [12]
  fold induction at 50 µM: 0.6
K. pneumoniae; [13]
  fold induction at 50 µM: 0.8
[2]; [14]
  fold induction at 50 µM: 1.2
P. aeruginosa; [15]
  fold induction at 50 µM: 0.9
E. cloacae; [16]
  fold induction at 50 µM: 1
E. coli; [17]
  fold induction at 50 µM: 1

## Iobenguane sulfate
E. faecium; planktonic E. faecium, cutoff for positive-scoring molecules 3-fold increase
  AK-based Prestwick Library Screening Results, E. faecium (increase in extracellular AK activity): 0.9
[1]; planktonic S. aureus, cutoff for positive-scoring molecules 3-fold increase
  AK-based Prestwick Library Screening Results, S. aureus (increase in extracellular AK activity): 0.5
K. pneumoniae; planktonic K. pneumoniae, cutoff for positive-scoring molecules 3-fold increase
  AK-based Prestwick Library Screening Results, K. pneumoniae (increase in extracellular AK activity): 0.5
[2]; planktonic A. baumannii, cutoff for positive-scoring molecules 3-fold increase
  AK-based Prestwick Library Screening Results, A. baumannii (increase in extracellular AK activity): 0.5
P. aeruginosa; planktonic P. aeruginosa, cutoff for positive-scoring molecules 3-fold increase
  AK-based Prestwick Library Screening Results, P. aeruginosa (increase in extracellular AK activity): 0.4
E. cloacae; planktonic E. cloacae, cutoff for positive-scoring molecules 3-fold increase
  AK-based Prestwick Library Screening Results, E. cloacae (increase in extracellular AK activity): 0.6
E. coli; planktonic E. coli, cutoff for positive-scoring molecules 3-fold increase
  AK-based Prestwick Library Screening Results, E. coli (increase in extracellular AK activity): 0.5

## C[C@]12CC[C@@H]3c4ccc(OS(=O)(=O)O)cc4CC[C@H]3[C@@H]1CCC2=O [Estropipate]
E. faecium; [18]
  fold induction at 50 µM: 1
[1]; [19]
  fold induction at 50 µM: 1.1
K. pneumoniae; [20]
  fold induction at 50 µM: 1
[2]; [21]
  fold induction at 50 µM: 1
P. aeruginosa; [22]
  fold induction at 50 µM: 1.1
E. cloacae; [23]
  fold induction at 50 µM: 1.3
E. coli; planktonic, cutoff for positive-scoring molecules 3-fold increase, read-out: AK-based Prestwick Library Screening Results, E. coli (fold increase in extracellular AK activity)
  fold induction at 50 µM: 1.1

## O=c1cc(-c2ccc(O)cc2)oc2c([C@@H]3O[C@H](CO)[C@@H](O)[C@H](O)[C@H]3O)c(O)cc(O)c12 [Vitexin]
E. faecium; [18]
  fold induction at 50 µM: 1
[1]; [19]
  fold induction at 50 µM: 0.7
K. pneumoniae; [20]
  fold induction at 50 µM: 0.8
[2]; [21]
  fold induction at 50 µM: 0.7
P. aeruginosa; [22]
  fold induction at 50 µM: 0.8
E. cloacae; [23]
  fold induction at 50 µM: 0.8
E. coli; planktonic, […], read-out: AK-based Prestwick Library Screening Results, E. coli (fold increase in extracellular AK activity)
  fold induction at 50 µM: 0.8

## CN1CCC(=C2c3ccccc3CC(=O)c3sccc32)CC1 [Ketotifen fumarate]
E. faecium; [3]
  fold induction at 50 µM: 1
[1]; [4]
  fold induction at 50 µM: 1.1
K. pneumoniae; [5]
  fold induction at 50 µM: 0.9
[2]; [6]
  fold induction at 50 µM: 1.1
P. aeruginosa; [7]
  fold induction at 50 µM: 1.1
E. cloacae; [8]
  fold induction at 50 µM: 1.7
E. coli; [9]
  fold induction at 50 µM: 1.3

## CN1CCCN(C(c2ccccc2)c2ccc(Cl)cc2)CC1 (stereo not shown) [Homochlorcyclizine dihydrochloride]
E. faecium; planktonic E. faecium, 384-well, […], read-out: AK-based Prestwick Library Screening Results: E. faecium (increase in extracellular AK activity)
  fold induction at 50 µM: 1.2
[1]; planktonic S. aureus, 384-well, […], read-out: AK-based Prestwick Library Screening Results: S. aureus (increase in extracellular AK activity)
  fold induction at 50 µM: 1
K. pneumoniae; planktonic K. pneumoniae, 384-well, […], read-out: AK-based Prestwick Library Screening Results: K. pneumoniae (increase in extracellular AK activity)
  fold induction at 50 µM: 1.1
[2]; planktonic A. baumannii, 384-well, […], read-out: AK-based Prestwick Library Screening Results: A. baumannii (increase in extracellular AK activity)
  fold induction at 50 µM: 1.2
P. aeruginosa; planktonic P. aeruginosa, 384-well, […], read-out: AK-based Prestwick Library Screening Results: P. aeruginosa (increase in extracellular AK activity)
  fold induction at 50 µM: 1.2
E. cloacae; planktonic E. cloacae, 384-well, […], read-out: AK-based Prestwick Library Screening Results: E. cloacae (increase in extracellular AK activity)
  fold induction at 50 µM: 1.8
E. coli; planktonic E. coli, 384-well, […], read-out: AK-based Prestwick Library Screening Results: E. coli (increase in extracellular AK activity)
  fold induction at 50 µM: 1.5

## CCC(=O)O[C@]1(C(=O)SCF)[C@H](C)C[C@H]2[C@@H]3C[C@H](F)C4=CC(=O)C=C[C@]4(C)[C@@]3(F)[C@@H](O)C[C@@]21C [Fluticasone propionate]
E. faecium; planktonic E. faecium, positive cutoff 3-fold increase, read-out: AK-based Prestwick library screening result, E. faecium (fold increase in extracellular AK activity)
  fold induction at 50 µM: 0.9
[1]; planktonic S. aureus, positive cutoff 3-fold increase, read-out: AK-based Prestwick library screening result, S. aureus (fold increase in extracellular AK activity)
  fold induction at 50 µM: 0.7
K. pneumoniae; planktonic K. pneumoniae, positive cutoff 3-fold increase, read-out: AK-based Prestwick library screening result, K. pneumoniae (fold increase in extracellular AK activity)
  fold induction at 50 µM: 0.7
[2]; planktonic A. baumannii, positive cutoff 3-fold increase, read-out: AK-based Prestwick library screening result, A. baumannii (fold increase in extracellular AK activity)
  fold induction at 50 µM: 0.8
P. aeruginosa; planktonic P. aeruginosa, positive cutoff 3-fold increase, read-out: AK-based Prestwick library screening result, P. aeruginosa (fold increase in extracellular AK activity)
  fold induction at 50 µM: 0.8
E. cloacae; planktonic E. cloacae, positive cutoff 3-fold increase, read-out: AK-based Prestwick library screening result, E. cloacae (fold increase in extracellular AK activity)
  fold induction at 50 µM: 1.5
E. coli; planktonic E. coli, positive cutoff 3-fold increase, read-out: AK-based Prestwick library screening result, E. coli (fold increase in extracellular AK activity)
  fold induction at 50 µM: 0.8
